For one experiment, the target named is hNav1.3 (Homo sapiens, UniProt Q9NY46). Description: cell-based. The conditions noted are these: IonWorks Quattro, use-dependent block, hNav1.3; read-out: IWQ Use Nav1.3. (Patch clamp records ionic current or voltage across a cell membrane.)
For a further experiment, the target named is hNav1.7 (Homo sapiens, UniProt Q15858). Description: cell-based. It counts as cell-based.
[1] abbreviates: IonWorks Quattro, Use, read-out: IWQ Use Nav1.7.
[2] abbreviates: IonWorks Quattro, use-dependent, […], read-out: IWQ Use Nav1.7 (μm).

The source of these data is US9340590B2 (priority 2011, dated 2016).

Read-outs that look alike come from different tables or passages of the source. Positions of bridges follow the written chain, without caps; N, C: chain ends. Non-standard residues stand in square brackets, D forms with d. Residues, ends and D or L forms follow the SMILES beside them. No end group written: not given here. Lys(Me2) = CN(C)CCCC[C@H](N)C(=O)O; Abu = CC[C@H](N)C(=O)O

hNav1.7, sequence (Q15858 whole entry, looked up): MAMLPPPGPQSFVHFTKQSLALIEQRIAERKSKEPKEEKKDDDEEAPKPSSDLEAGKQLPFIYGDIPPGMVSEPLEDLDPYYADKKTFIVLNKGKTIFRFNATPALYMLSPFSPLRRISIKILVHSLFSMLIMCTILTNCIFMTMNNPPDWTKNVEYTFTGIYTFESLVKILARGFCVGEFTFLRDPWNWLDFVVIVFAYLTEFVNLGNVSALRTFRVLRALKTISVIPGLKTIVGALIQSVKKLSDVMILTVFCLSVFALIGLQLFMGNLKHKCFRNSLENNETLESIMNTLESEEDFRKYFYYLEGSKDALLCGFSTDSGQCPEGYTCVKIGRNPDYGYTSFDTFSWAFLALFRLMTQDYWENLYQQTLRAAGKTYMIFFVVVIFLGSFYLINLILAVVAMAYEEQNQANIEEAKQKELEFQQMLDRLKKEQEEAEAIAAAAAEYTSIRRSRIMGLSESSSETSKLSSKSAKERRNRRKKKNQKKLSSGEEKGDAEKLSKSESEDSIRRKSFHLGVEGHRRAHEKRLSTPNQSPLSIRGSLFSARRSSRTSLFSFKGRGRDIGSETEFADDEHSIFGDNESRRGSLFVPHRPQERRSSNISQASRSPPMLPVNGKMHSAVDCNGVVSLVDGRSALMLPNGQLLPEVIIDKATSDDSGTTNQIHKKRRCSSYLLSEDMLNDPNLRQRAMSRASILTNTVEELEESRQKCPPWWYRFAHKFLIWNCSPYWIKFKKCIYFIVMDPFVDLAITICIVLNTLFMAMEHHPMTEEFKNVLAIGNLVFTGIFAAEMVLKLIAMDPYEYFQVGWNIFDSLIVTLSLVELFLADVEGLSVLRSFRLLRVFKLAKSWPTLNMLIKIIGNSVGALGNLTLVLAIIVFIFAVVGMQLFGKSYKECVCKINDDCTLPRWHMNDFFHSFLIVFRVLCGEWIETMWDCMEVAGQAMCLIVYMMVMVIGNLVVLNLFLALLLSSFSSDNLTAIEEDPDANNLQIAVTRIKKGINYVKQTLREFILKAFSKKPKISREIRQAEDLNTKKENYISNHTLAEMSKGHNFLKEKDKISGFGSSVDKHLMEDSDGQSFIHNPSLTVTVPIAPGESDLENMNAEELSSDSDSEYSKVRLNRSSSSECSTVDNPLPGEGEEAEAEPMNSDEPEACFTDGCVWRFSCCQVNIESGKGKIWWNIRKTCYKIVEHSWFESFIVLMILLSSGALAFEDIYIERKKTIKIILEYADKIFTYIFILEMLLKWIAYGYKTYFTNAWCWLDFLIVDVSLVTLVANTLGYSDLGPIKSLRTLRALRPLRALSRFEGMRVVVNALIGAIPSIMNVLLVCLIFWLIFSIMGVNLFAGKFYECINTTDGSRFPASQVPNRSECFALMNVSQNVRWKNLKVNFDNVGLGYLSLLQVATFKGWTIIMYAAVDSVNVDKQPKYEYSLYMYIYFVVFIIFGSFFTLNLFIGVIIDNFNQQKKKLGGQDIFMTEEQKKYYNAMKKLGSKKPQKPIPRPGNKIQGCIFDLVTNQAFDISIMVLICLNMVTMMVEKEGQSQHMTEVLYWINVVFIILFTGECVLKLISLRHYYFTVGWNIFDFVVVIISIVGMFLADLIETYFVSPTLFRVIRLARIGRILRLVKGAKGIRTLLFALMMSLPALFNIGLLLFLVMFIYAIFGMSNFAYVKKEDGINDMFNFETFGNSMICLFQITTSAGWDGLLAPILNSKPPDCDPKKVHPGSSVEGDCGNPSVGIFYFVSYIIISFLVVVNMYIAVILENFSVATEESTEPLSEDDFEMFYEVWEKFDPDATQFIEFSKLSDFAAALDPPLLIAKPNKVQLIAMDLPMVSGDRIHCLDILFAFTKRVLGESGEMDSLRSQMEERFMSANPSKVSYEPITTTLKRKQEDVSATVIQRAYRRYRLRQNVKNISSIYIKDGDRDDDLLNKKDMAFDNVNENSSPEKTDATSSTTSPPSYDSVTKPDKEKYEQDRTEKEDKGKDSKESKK
hNav1.3, sequence (Q9NY46 whole entry, looked up): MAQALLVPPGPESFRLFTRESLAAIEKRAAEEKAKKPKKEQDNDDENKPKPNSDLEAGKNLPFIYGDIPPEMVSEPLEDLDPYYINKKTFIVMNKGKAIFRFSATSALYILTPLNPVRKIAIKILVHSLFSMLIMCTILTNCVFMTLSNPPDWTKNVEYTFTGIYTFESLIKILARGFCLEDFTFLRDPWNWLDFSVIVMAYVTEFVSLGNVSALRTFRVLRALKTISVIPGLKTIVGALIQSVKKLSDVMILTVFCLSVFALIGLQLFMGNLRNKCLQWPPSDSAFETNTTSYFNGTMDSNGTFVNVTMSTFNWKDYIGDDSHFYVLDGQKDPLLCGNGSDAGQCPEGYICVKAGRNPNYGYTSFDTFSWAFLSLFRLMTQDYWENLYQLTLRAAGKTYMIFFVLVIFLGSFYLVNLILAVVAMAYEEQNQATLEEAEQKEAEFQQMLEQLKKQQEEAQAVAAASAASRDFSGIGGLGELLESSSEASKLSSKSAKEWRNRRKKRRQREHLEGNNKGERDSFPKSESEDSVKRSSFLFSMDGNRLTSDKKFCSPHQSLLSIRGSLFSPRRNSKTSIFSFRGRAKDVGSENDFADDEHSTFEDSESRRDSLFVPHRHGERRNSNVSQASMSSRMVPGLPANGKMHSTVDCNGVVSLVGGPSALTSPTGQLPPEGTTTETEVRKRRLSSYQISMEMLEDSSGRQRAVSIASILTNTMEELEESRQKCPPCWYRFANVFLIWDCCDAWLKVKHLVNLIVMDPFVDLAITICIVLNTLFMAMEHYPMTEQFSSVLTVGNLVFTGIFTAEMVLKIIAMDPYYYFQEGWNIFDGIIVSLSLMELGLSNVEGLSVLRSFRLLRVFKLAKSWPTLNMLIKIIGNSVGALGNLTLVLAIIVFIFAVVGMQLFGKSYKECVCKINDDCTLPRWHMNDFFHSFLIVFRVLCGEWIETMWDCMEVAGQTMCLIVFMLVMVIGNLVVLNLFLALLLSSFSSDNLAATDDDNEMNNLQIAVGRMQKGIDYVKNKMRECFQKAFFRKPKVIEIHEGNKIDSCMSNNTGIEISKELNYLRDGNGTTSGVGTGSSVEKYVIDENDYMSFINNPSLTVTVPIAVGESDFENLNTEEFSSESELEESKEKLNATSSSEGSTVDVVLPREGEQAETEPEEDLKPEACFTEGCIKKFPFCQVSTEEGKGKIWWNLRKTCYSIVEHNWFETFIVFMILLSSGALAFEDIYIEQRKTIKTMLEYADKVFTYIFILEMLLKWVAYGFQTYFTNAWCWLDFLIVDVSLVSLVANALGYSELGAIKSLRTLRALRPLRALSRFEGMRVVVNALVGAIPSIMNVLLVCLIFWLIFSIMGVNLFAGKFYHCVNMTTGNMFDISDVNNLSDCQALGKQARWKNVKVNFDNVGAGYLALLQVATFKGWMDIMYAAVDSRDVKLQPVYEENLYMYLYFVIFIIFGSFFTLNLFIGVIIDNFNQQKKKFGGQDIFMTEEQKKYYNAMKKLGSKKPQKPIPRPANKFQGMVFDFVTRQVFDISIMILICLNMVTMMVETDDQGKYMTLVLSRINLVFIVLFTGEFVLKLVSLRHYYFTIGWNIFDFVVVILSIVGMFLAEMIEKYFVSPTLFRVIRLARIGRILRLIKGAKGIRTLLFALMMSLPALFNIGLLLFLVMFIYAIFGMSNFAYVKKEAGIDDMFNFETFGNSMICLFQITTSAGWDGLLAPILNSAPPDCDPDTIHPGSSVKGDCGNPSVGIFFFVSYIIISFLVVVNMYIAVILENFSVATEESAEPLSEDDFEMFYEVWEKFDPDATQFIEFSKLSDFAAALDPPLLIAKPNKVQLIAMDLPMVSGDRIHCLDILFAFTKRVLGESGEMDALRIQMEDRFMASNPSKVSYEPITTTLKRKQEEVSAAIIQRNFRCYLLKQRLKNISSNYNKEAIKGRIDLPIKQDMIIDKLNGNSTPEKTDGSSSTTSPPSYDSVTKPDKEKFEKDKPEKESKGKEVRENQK

On to `CC[C@H](C)[C@@H]1NC(=O)[C@@H]2CSSC[C@@H]3NC(=O)[C@H](C(C)C)NC(=O)[C@H](CC(C)C)NC(=O)[C@H](CC(N)=O)NC(=O)[C@@H]4CCCN4C(=O)[C@H](CCCNC(=N)N)NC(=O)[C@H](CSSC[C@H](NC(=O)[C@@H](N)CC(=O)O)C(=O)N[C@@H](CC(C)C)C(=O)NCC(=O)N[C@@H](Cc4ccccc4)C(=O)N[C@@H](CCSC)C(=O)N[C@@H](CCCNC(=N)N)C(=O)N[C@@H](CCCCN)C(=O)N2)NC(=O)[C@H](CSSC[C@@H](C(=O)N[C@@H](CCCCN)C(=O)N[C@@H](Cc2ccc(O)cc2)C(=O)N[C@H](C(=O)N[C@@H](Cc2ccccc2)C(N)=O)C(C)C)NC(=O)[C@H](Cc2c[nH]c4ccccc24)NC(=O)[C@H](CCC(N)=O)NC(=O)[C@H](Cc2cnc[nH]2)NC(=O)[C@H]([C@@H](C)O)NC(=O)[C@H](CCCNC(=N)N)NC(=O)[C@H](CO)NC3=O)NC(=O)[C@H](CCCCN)NC(=O)[C@H](CC(=O)O)NC(=O)[C@H](CC(N)=O)NC(=O)[C@H](CC(=O)O)NC(=O)[C@@H]2CCCN2C1=O` [SEQ ID NO: 763, [Gln28]GpTx-1] (H-DCLGFMRKCIPDNDKCCRPNLVCSRTHQWCKYVF-NH2; disulfide 2-17, 9-23, 16-30), for which the IC50 at hNav1.3 worked out at 270 nM; against hNav1.7, 190 nM.
`CSCC[C@@H]1NC(=O)[C@H](Cc2ccccc2)NC(=O)CNC(=O)[C@H](CC(C)C)NC(=O)[C@@H](NC(=O)[C@@H](N)CC(=O)O)CSSC[C@@H]2NC(=O)[C@@H]3CSSC[C@@H](C(=O)N[C@@H](CCCCN)C(=O)N[C@@H](Cc4ccc(O)cc4)C(=O)N[C@H](C(=O)N[C@@H](Cc4ccccc4)C(N)=O)C(C)C)NC(=O)[C@H](Cc4c[nH]c5ccccc45)NC(=O)[C@H](CCCCN)NC(=O)[C@H](Cc4c[nH]cn4)NC(=O)[C@H]([C@@H](C)O)NC(=O)[C@H](CCCNC(=N)N)NC(=O)[C@H](CO)NC(=O)[C@H](CSSC[C@H](NC(=O)[C@H](CCCCN)NC(=O)[C@H](CCCNC(=N)N)NC1=O)C(=O)N[C@@H]([C@@H](C)O)C(=O)N1CCC[C@H]1C(=O)N[C@@H](CC(=O)O)C(=O)N[C@@H](CC(N)=O)C(=O)N[C@@H](CC(=O)O)C(=O)N[C@@H](CCCCN)C(=O)N3)NC(=O)[C@H](C(C)C)NC(=O)[C@H](CC(C)C)NC(=O)[C@H](CC(N)=O)NC(=O)[C@@H]1CCCN1C(=O)[C@H](CCCNC(=N)N)NC2=O` [compound 309] (H-DCLGFMRKCTPDNDKCCRPNLVCSRTHKWCKYVF-NH2; disulfide 2-17, 9-23, 16-30): at hNav1.7 (setting [1]), the IC50 stood at 100 nM.
Consider `CC[C@H](C)[C@@H]1NC(=O)[C@@H]2CSSC[C@@H]3NC(=O)[C@H](C(C)C)NC(=O)[C@H](CC(C)C)NC(=O)[C@H](CC(N)=O)NC(=O)[C@@H]4CCCN4C(=O)[C@H](CCCCN(C)C)NC(=O)[C@H](CSSC[C@H](NC(=O)[C@@H](N)CC(=O)O)C(=O)N[C@@H](CC(C)C)C(=O)NCC(=O)N[C@@H](Cc4ccccc4)C(=O)N[C@@H](CCSC)C(=O)N[C@@H](CCCNC(=N)N)C(=O)N[C@@H](CCCCN)C(=O)N2)NC(=O)[C@H](CSSC[C@@H](C(=O)N[C@@H](CCCCN)C(=O)N[C@@H](Cc2ccc(O)cc2)C(=O)N[C@H](C(=O)N[C@@H](Cc2ccccc2)C(N)=O)C(C)C)NC(=O)[C@H](Cc2c[nH]c4ccccc24)NC(=O)[C@H](CCCCN)NC(=O)[C@H](Cc2c[nH]cn2)NC(=O)[C@H]([C@@H](C)O)NC(=O)[C@H](CCCNC(=N)N)NC(=O)[C@H](CO)NC3=O)NC(=O)[C@H](CCCCN)NC(=O)[C@H](CC(=O)O)NC(=O)[C@H](CC(N)=O)NC(=O)[C@H](CC(=O)O)NC(=O)[C@@H]2CCCN2C1=O` [compound 314] (H-DCLGFMRKCIPDNDKCC[Lys(Me2)]PNLVCSRTHKWCKYVF-NH2; disulfide 2-17, 9-23, 16-30), for which the IC50 on hNav1.7 (setting [1]) was determined as 210 nM.
As to `CC[C@H](C)[C@@H]1NC(=O)[C@@H]2CSSC[C@@H]3NC(=O)[C@H](C(C)C)NC(=O)[C@H](CC(C)C)NC(=O)[C@H](CC(N)=O)NC(=O)[C@@H]4CCCN4C(=O)[C@H](CCCNC(=N)N)NC(=O)[C@H](CSSC[C@H](NC(=O)[C@@H](N)CC(=O)O)C(=O)N[C@@H](CC(C)C)C(=O)NCC(=O)N[C@@H](Cc4ccccc4)C(=O)N[C@@H](CCSC)C(=O)N[C@@H](CCCNC(=N)N)C(=O)N[C@@H](CCCCN)C(=O)N2)NC(=O)[C@H](CSSC[C@@H](C(=O)N[C@@H](CCCCN)C(=O)N[C@@H](Cc2ccc(O)cc2)C(=O)N[C@H](C(N)=O)C(C)C)NC(=O)[C@H](Cc2c[nH]c4ccccc24)NC(=O)[C@H](CCCCN)NC(=O)[C@H](Cc2c[nH]cn2)NC(=O)[C@H]([C@@H](C)O)NC(=O)[C@H](CCCNC(=N)N)NC(=O)[C@H](CO)NC3=O)NC(=O)[C@H](CCCCN)NC(=O)[C@H](CC(=O)O)NC(=O)[C@H](CC(N)=O)NC(=O)[C@H](CC(=O)O)NC(=O)[C@@H]2CCCN2C1=O` [compound 415] (H-DCLGFMRKCIPDNDKCCRPNLVCSRTHKWCKYV-NH2; disulfide 2-17, 9-23, 16-30), the IC50 on hNav1.7 (setting [2]) was 2350 nM.
The same measure, in the same setting: in the case of `CC[C@H](C)[C@@H]1NC(=O)[C@@H]2CSSC[C@@H]3NC(=O)[C@H](C(C)C)NC(=O)[C@H](CC(C)C)NC(=O)[C@H](CC(N)=O)NC(=O)[C@@H]4CCCN4C(=O)[C@H](CCCNC(=N)N)NC(=O)[C@H](CSSC[C@H](NC(=O)[C@@H](N)CC(=O)O)C(=O)N[C@@H](CC(C)C)C(=O)NCC(=O)N[C@@H](Cc4ccccc4)C(=O)N[C@@H](CCSC)C(=O)N[C@@H](CCCNC(=N)N)C(=O)N[C@@H](CCCCN)C(=O)N2)NC(=O)[C@H](CSSC[C@@H](C(=O)N[C@@H](CCCCN)C(=O)N[C@@H](Cc2ccc(O)cc2)C(N)=O)NC(=O)[C@H](Cc2c[nH]c4ccccc24)NC(=O)[C@H](CCCCN)NC(=O)[C@H](Cc2c[nH]cn2)NC(=O)[C@H]([C@@H](C)O)NC(=O)[C@H](CCCNC(=N)N)NC(=O)[C@H](CO)NC3=O)NC(=O)[C@H](CCCCN)NC(=O)[C@H](CC(=O)O)NC(=O)[C@H](CC(N)=O)NC(=O)[C@H](CC(=O)O)NC(=O)[C@@H]2CCCN2C1=O` [compound 416] (H-DCLGFMRKCIPDNDKCCRPNLVCSRTHKWCKY-NH2; disulfide 2-17, 9-23, 16-30) it was 1500 nM.
On to “[2-Abu-2,17]GpTx-1 (D[Abu]LGFMRKCIPDNDKC[Abu]RPNLVCSRTHKWCKYVF-NH2; ends and bridges not checked)”, for which the “activity against NaV1.7 relative to GpTx-1, in words” value with hNav1.7 is “retains significant activity”.
In the case of “[Glu18;desAsn20]GpTx-1 (DCLGFMRKCIPDNDKCCEGLVCSRTHKWCKYVF-NH2; ends and bridges not checked)”, the “activity against NaV1.7 relative to GpTx-1, in words” value with hNav1.7 is listed as “without substantial impact on the activity”.
Still for that read-out and setting: in the case of “[Ser-Ser19]GpTx-1 (DCLGFMRKCIPDNDKCCRSSNLVCSRTHKWCKYVF-NH2; ends and bridges not checked)” it was “without substantial impact on the activity”.
